Experimental data: patent US12398179B2, “Nanomolar peptides and derivatives to differentially modulate ephrin receptors” (Sanford Burnham Prebys Medical Discovery Institute, priority 2019, dated 2025)
Converted amounts (≈) assume the structure as drawn. Read-outs that look alike come from different tables or passages of the source. Residues, ends and D or L forms follow the SMILES beside them.

Legend:
EphA2 WT = target: T1, EphA2 WT (Homo sapiens, UniProt P29317); assay: Quantitative FRET of EphA2 oligomerization in HEK293 cells; format: cell-based; settings: transiently transfected HEK293 cells; 50 μM for YSA-GSGSK-bio
T1 construct: expressed in transfected cells; host or cells: HEK293 (transient transfection)

EphA2 G131Y = target: T2, EphA2 G131Y (Homo sapiens, UniProt P29317, G131Y); assay: as above; format: cell-based; settings: 50 μM peptide
T2 construct: expressed in transfected cells; host or cells: HEK293 (transient transfection)
Source text: (§1) (FIG. 5F) Two-dimensional dissociation constant values (Kdiss) and dimerization free energy values (ΔG=−RT×In (10^6/Kdiss) calculated from the curves shown in the other panels. Shown are the best fit values and the […] confidence intervals (standard errors). Kdiss values for all curves were compared to each other using one-way ANOVA followed by Tukey's multiple comparison test; *, P<0.05; **, P<0.01; ***, P<0.001; * P<0.0001; ns, not significant.
(§2) Thus, the peptide enhanced the weak EphA2 dimerization observed in the absence of a bound ligand, which also occurred through the clustering interface. In contrast, the monomeric soluble form of ephrin-Al induced the formation of EphA2 dimers that assembled through another extracellular interface known as the “heterodimerization” or “dimerization” interface.

EphA2 L223R/L254R/V255R = target: T3, EphA2 L223R/L254R/V255R (Homo sapiens, UniProt P29317, L223R/L254R/V255R); assay: as above; format: cell-based; settings: 50 μM peptide
T3 construct: expressed in transfected cells; host or cells: HEK293 (transient transfection)
Source text: as §1, §2

[1] = Peptide solubility in PBS/H2O
EphA2 LBD = target: T4, EphA2 LBD (Homo sapiens, UniProt P29317); assay: Isothermal titration calorimetry (ITC) of peptide binding
T4 construct: EphA2 LBD (residues 28-200); made in house; host or cells: E. coli Origami 2 (DE3)
Procedure: For ITC, all peptides were dissolved in DMSO and both the EphA2 LBD and the peptides were diluted to obtain a final buffer containing 9.5 mM HEPES, pH 7.9, 95 mM NaCl, and 5% DMSO. […] Two-microliter aliquots of a peptide solution were injected into the cell containing 205 μL EphA2 LBD. 200-400 μM peptides were titrated into 20-40 μM EphA2 LBD. Experimental data were analyzed using the Origin software package (Microcal). The integrated values for the reaction heats were normalized to the amount of injected peptide after blank subtraction.

EphA2 [2] = target: T5, EphA2 (Homo sapiens, UniProt P29317); assay: ELISA: inhibition of ephrin-A5 AP binding to immobilized EphA2 Fc; set-up: the immobilized EphA2 extracellular domain fused to the Fc portion of an antibody (EphA2 Fc); settings: average ± SE
Procedure: (FIG. 2A) Representative ELISAs comparing the ability of the peptides to inhibit binding of ephrin-A5 fused to alkaline phosphatase (ephrin-A5 AP) to the immobilized EphA2 extracellular domain fused to the Fc portion of an antibody (EphA2 Fc). The graphs show averages±SE from triplicate measurements from a representative experiment. IC50 values calculated from the fitted curves in each experiment are shown. All concentrations are nM and the 100 nM peptide concentration is outlined in red. (FIG. 2B) Ephrin-A5 AP binding to the indicated EphA receptors and ephrin-B2 AP binding to the indicated EphB receptors in the presence of the indicated peptide, normalized to ephrin binding without peptide. The bars show averages±SE from triplicate measurements.
Target sequence in this assay (P29317 24-537 limits assumed, species assumed): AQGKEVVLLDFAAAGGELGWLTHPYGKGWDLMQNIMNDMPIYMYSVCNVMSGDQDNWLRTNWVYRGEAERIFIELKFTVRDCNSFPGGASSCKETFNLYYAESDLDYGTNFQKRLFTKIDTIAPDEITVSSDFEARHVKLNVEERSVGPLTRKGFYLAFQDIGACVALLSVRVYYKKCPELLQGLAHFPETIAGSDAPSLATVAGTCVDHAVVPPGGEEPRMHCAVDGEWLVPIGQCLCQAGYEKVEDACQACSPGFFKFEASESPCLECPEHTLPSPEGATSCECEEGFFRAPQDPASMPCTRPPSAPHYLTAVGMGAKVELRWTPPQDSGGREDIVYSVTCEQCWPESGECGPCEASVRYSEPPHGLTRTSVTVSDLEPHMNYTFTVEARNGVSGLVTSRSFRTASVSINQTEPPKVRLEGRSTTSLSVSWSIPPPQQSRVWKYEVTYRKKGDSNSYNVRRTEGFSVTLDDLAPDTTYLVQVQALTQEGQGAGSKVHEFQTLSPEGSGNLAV

EphA2 [3] = target: T5, EphA2; assay: EphA2 Y588 autophosphorylation in PC3 cells (immunoblot); format: cell-based; set-up: endogenous EphA2 expressed in PC3 prostate cancer cells; endogenous in cells; host or cells: PC3 prostate cancer cells; settings: for EphA2 activation / Y588 phosphorylation (in words): 15 min
Procedure: (§3) PC3 cells were treated for 15 min with different concentrations of the indicated peptides. […] The graphs show quantification of pY588 and pAKT from multiple blots (averages±SE), normalized to total EphA2 levels. The number of experiments analyzed is: 5 in FIG. 4A, 3 in FIG. 4B, 7 in FIG. 4C, 7 in FIG. 4D, 5 in FIG. 4E, 3 in FIG. 4F, 3 in FIG. 4G and 2 in FIG. 4H.
PC3 cells were treated for 15 min with different concentrations of the indicated peptides. […] The graphs show quantification of pY588 or pAKT from multiple blots (averages±SE), normalized to total EphA2 levels. The number of experiments analyzed is: 3 in FIG. 10A, 6 in FIG. 10B, 2 in FIG. 10C, 5 in FIG. 10D, 4 in FIG. 10E and 3 in FIG. 10F.
Target sequence in this assay (P29317 24-976): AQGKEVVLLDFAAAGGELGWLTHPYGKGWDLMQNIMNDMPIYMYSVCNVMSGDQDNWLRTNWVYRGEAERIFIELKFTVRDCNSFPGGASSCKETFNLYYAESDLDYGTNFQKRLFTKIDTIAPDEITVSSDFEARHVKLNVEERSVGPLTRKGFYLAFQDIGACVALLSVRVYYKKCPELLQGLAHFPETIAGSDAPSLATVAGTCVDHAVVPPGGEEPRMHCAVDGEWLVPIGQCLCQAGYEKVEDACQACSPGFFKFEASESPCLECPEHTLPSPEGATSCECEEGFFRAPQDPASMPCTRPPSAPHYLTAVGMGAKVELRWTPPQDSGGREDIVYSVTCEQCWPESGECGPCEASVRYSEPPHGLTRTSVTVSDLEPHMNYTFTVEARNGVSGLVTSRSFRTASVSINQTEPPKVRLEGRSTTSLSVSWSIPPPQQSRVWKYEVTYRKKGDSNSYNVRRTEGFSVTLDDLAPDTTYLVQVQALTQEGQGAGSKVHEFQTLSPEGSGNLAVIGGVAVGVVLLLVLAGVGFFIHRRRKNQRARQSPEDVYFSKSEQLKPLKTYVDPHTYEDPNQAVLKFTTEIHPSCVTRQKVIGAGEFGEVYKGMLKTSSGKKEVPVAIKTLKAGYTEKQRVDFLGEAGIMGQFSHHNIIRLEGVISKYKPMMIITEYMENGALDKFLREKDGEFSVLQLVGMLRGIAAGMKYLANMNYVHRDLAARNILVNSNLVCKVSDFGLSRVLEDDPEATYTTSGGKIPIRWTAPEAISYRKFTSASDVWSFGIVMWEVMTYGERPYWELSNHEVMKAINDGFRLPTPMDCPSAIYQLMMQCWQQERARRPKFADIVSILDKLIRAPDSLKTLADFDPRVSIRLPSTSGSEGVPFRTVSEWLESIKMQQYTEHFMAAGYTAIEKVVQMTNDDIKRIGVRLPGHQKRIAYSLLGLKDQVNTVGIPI

AKT = AKT S473 phosphorylation in PC3 cells (immunoblot); format: cell-based; settings: peptide then 0.1 μg/ml ephrin-A1 Fc
Procedure: as §3

EphA2 [4] = target: T5, EphA2; assay: Inhibition of ephrin-A1 Fc-induced EphA2 Y588 phosphorylation in PC3 cells; format: cell-based; set-up: endogenous EphA2 expressed in PC3 prostate cancer cells; endogenous in cells; host or cells: PC3 prostate cancer cells; settings: 20 min peptide then 0.1 μg/ml ephrin-A1 Fc
Procedure: PC3 cells were treated for 20 min with different concentrations of the indicated peptides and then activated with 0.1 μg/ml ephrin-Al Fc. The immunoblots show EphA2 autophosphorylation on tyrosine 588 (pY588, indicative of receptor activation), total EphA2 levels, and AKT phosphorylation on S473 (indicative of AKT activation). pY588 values were normalized to the value obtained in the same blot with ephrin-Al Fc treatment in the absence of peptide. pAKT values were normalized to the value obtained in the same blot without ephrin-A1 Fc or peptide treatment. Calculated EC50 and IC50 values are shown. The graphs show quantification of pY588 and pAKT from 7 blots for each peptide (averages±SE), normalized to total EphA2 levels.
Target sequence in this assay (P29317 24-976): as above

[5] = PBS, Solubility in PBS (mg/ml), PBS (first figure of cell)
[6] = water, Solubility in H2O (mg/ml), H2O (second figure of cell)
[7] = EphA2 LBD, 23° C., average ± SE (Table 1), read-out: KD (nM) by ITC

T4 sequence (P29317 28-200): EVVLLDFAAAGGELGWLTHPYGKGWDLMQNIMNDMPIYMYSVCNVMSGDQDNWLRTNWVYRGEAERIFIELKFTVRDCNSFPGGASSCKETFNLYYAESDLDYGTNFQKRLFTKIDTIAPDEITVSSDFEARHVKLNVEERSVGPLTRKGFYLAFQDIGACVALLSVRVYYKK
T2 sequence (P29317 24-976 G131Y): as the sequence (P29317 24-976) above, with G108Y counted along it
T1 sequence (P29317 24-976): as the sequence (P29317 24-976) above
T3 sequence (P29317 24-976 L223R/L254R/V255R): as the sequence (P29317 24-976) above, with L200R, L231R, V232R counted along it

## CC(C)C[C@H](NC(=O)[C@H](Cc1c[nH]c2ccccc12)NC(=O)[C@@H](N)CO)C(=O)N[C@@H](C)C(=O)N[C@@H](Cc1ccc(O)cc1)C(=O)N1CCC[C@H]1C(=O)NCC(=O)N[C@@H](C)C(=O)N[C@H](C(=O)N[C@@H](CO)C(=O)N[C@@H](Cc1ccc(O)cc1)C(=O)N[C@@H](CCCN=C(N)N)C(=O)O)C(C)C [SWL]
physchem; Solubility in H2O (mg/ml)
  solubility: 10 mg/mL (≈ 7.3 mM)
physchem; Solubility in PBS (mg/ml)
  solubility: 5 mg/mL (≈ 3.65 mM)

## CSCC[C@H](NC(=O)[C@H](CCSC)NC(=O)[C@@H]1CCCN1C(=O)[C@@H](NC(=O)[C@H](CO)NC(=O)[C@H](CC(=O)O)NC(=O)[C@@H]1CCCN1C(=O)[C@H](Cc1ccc(O)cc1)NC(=O)[C@H](C)NC(=O)[C@H](CO)NC(=O)[C@@H](N)Cc1ccc(O)cc1)C(C)C)C(=O)N[C@@H](CO)C(=O)NCC(=O)N[C@@H](CO)C(=O)NCC(=O)N[C@@H](CO)C(=O)N[C@@H](CCCCNC(=O)CCCC[C@@H]1SC[C@@H]2NC(=O)N[C@@H]21)C(=O)O [YSA-GSGSK-bio]
EphA2 WT
  EphA2 WT oligomerization by FRET: substantially increased the oligomeric fraction
EphA2 G131Y
  EphA2 G131Y oligomerization by FRET: had no effect on/reduced oligomerization
EphA2 L223R/L254R/V255R
  EphA2 L223R/L254R/V255R oligomerization by FRET: promoted substantial oligomerization
[1]; [5]
  solubility: 15 mg/mL (≈ 7.54 mM)
[1]; [6]
  solubility: 15 mg/mL (≈ 7.54 mM)

## O=C(O)CCCC[C@@H]1SC[C@@H]2NC(=O)N[C@@H]21 [biotin, reference compound]
EphA2 LBD; 1 mM biotin
  binding to the EphA2 LBD by ITC (in words): did not detect binding

## CC(=O)NCCCC[C@H](NC(=O)[C@@H]1CCCN1C(=O)[C@H](CCCNC(=N)N)NC(=O)[C@H](Cc1ccc(O)cc1)NC(=O)[C@@H]1CCCN1C(=O)[C@@H](NC(=O)[C@H](CO)NC(=O)[C@H](CC(=O)O)NC(=O)[C@@H]1CCCN1C(=O)[C@H](Cc1ccc(O)cc1)NC(=O)[C@H](C)NC(=O)[C@H](CC(C)C)NC(=O)[C@H](Cc1c[nH]c2ccccc12)NC(=O)CCN)C(C)C)C(=O)O [βA-WLA-YRP-ack]
EphA2 [2]
  IC50: 82 ± 10 nM
EphA2 [3]
  EphA2 activation / Y588 phosphorylation (in words): only slightly increased agonistic ability
[1]; [5]
  solubility: 5 mg/mL (≈ 2.93 mM)
[1]; [6]
  solubility: 5 mg/mL (≈ 2.93 mM)

## CC(C)C[C@H](NC(=O)[C@H](Cc1c[nH]c2ccccc12)NC(=O)CCN)C(=O)N[C@@H](C)C(=O)N[C@@H](Cc1ccc(O)cc1)C(=O)N1CCC[C@H]1C(=O)N[C@@H](CC(=O)O)C(=O)N[C@@H](CO)C(=O)N[C@H](C(=O)N1CCC[C@H]1C(=O)N[C@@H](Cc1ccc(O)cc1)C(=O)N[C@@H](CCCNC(=N)N)C(=O)N1CCC[C@H]1C(=O)N[C@@H](CCCCN)C(=O)O)C(C)C [βA-WLA-YRPK]
EphA2 [2]
  IC50: 55 ± 5 nM
EphA2 [3]
  EphA2 activation / Y588 phosphorylation (in words): substantial ability to activate EphA2
EphA2 [3]; saturating peptide concentrations
  maximal Y588 phosphorylation lower than biotinylated peptide: about 40%
[1]; [5]
  solubility: 10 mg/mL (≈ 6.01 mM)
[1]; [6]
  solubility: 10 mg/mL (≈ 6.01 mM)
EphA2 LBD; [7]
  Kd: 190 nM
EphA2 LBD; read-out: binding affinity for the EphA2 LBD measured by ITC
  Kd: ~200 nM

## CC(C)C[C@H](NC(=O)[C@H](Cc1c[nH]c2ccccc12)NC(=O)CCN)C(=O)N[C@@H](C)C(=O)N[C@@H](Cc1ccc(O)cc1)C(=O)N1CCC[C@H]1C(=O)N[C@@H](CC(=O)O)C(=O)N[C@@H](CO)C(=O)N[C@H](C(=O)N1CCC[C@H]1C(=O)N[C@@H](Cc1ccc(O)cc1)C(=O)N[C@@H](CCCNC(=N)N)C(=O)N1CCC[C@H]1C(=O)N[C@@H](CCCCNC(=O)CCCC[C@@H]1SC[C@@H]2NC(=O)N[C@@H]21)C(N)=O)C(C)C [βA-WLA-YRPKam-bio]
EphA2 [2]
  IC50: 18 ± 1 nM
EphA2 [3]
  EphA2 activation / Y588 phosphorylation (in words): induce high levels of EphA2 phosphorylation
[1]; [5]
  solubility: 2 mg/mL (≈ 1.06 mM)
[1]; [6]
  solubility: 5 mg/mL (≈ 2.65 mM)

## CC(C)C[C@H](NC(=O)[C@H](Cc1c[nH]c2ccccc12)NC(=O)CCN)C(=O)N[C@@H](C)C(=O)N[C@@H](Cc1ccc(O)cc1)C(=O)N1CCC[C@H]1C(=O)N[C@@H](CC(=O)O)C(=O)N[C@@H](CO)C(=O)N[C@H](C(=O)N1CCC[C@H]1C(=O)N[C@@H](Cc1ccc(O)cc1)C(=O)N[C@@H](CCCNC(=N)N)C(=O)N1CCC[C@H]1C(=O)N[C@@H](CCCCN)C(N)=O)C(C)C [βA-WLA-YRPKam]
EphA2 [2]
  IC50: 19 ± 2 nM
AKT
  effect on AKT inhibition caused by EphA2 activation: prevented the inhibitory effects
[1]; [5]
  solubility: 10 mg/mL (≈ 6.02 mM)
[1]; [6]
  solubility: 10 mg/mL (≈ 6.02 mM)
EphA2 LBD; [7]
  Kd: 110 nM
EphA2 [4]
  effect on EphA2 Y588 phosphorylation induced by ephrin-A1 Fc: inhibited

## CC(C)C[C@H](NC(=O)[C@H](Cc1c[nH]c2ccccc12)NC(=O)CCN)C(=O)N[C@@H](C)C(=O)N[C@@H](Cc1ccc(O)cc1)C(=O)N1CCC[C@H]1C(=O)N[C@@H](CC(=O)O)C(=O)N[C@@H](CO)C(=O)N[C@H](C(=O)N1CCC[C@H]1C(=O)N[C@@H](Cc1ccc(O)cc1)C(N)=O)C(C)C [βA-WLA-Yam] (HELM PEPTIDE1{[bAla].W.L.A.Y.P.D.S.V.P.Y.[am]}$$$$V2.0; N-terminus assumed)
EphA2 [2]
  IC50: 410 ± 50 nM
[1]; [6]
  solubility: 5 mg/mL (≈ 3.9 mM)

## CSCC[C@H](NC(=O)[C@@H]1CCCN1C(=O)[C@@H](NC(=O)[C@H](CO)NC(=O)[C@H](CC(=O)O)NC(=O)[C@@H]1CCCN1C(=O)[C@H](Cc1ccc(O)cc1)NC(=O)[C@H](C)NC(=O)[C@H](CC(C)C)NC(=O)[C@H](Cc1c[nH]c2ccccc12)NC(=O)CCN)C(C)C)C(N)=O [βA-WLAam] (HELM PEPTIDE1{[bAla].W.L.A.Y.P.D.S.V.P.M.[am]}$$$$V2.0; N-terminus assumed)
EphA2 [2]
  IC50: 840 ± 80 nM
[1]; [5]
  solubility: 10 mg/mL (≈ 8.01 mM)
[1]; [6]
  solubility: 10 mg/mL (≈ 8.01 mM)
